# Laboratory results: ChEMBL document CHEMBL1201862, “PubChem BioAssay data set” (2004)
# Calls of active or inactive are those of the source.
# How the values were obtained:
# [1] = biological target: Benomyl/methotrexate resistance protein (Candida albicans, UniProt P28873); assay: Candida albicans Mdr1 pump inhibition curves – singleplex, Cherry Pick1 hits, dose response (AID 588608); format: functional
# [2] = biological target: T1, High affinity choline transporter 1 (Homo sapiens, UniProt Q9GZV3); assay: human choline transporter blockers, potency – cell-based, 10-point CRC, membrane potential dye, dose response (AID 588401); format: functional;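 note: membrane potential dye fluorescence of choline-evoked depolarization via CHT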
# T1 sequence (Q9GZV3 whole entry): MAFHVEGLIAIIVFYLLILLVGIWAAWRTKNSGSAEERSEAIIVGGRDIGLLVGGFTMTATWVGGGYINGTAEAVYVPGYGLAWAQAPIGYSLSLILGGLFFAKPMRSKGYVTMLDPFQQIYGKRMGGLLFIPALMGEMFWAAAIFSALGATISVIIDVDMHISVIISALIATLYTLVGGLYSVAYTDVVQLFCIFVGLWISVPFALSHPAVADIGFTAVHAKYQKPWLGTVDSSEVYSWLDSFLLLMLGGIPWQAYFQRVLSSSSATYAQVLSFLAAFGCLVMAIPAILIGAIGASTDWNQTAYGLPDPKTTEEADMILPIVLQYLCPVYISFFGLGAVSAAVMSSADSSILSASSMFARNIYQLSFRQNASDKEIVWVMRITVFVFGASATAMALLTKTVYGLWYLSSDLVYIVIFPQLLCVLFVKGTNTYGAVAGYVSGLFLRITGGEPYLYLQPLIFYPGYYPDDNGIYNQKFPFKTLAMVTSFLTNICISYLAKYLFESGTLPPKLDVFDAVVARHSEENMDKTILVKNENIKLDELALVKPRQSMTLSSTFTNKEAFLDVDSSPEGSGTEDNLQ
# [3] = biological target: T1, High affinity choline transporter 1; assay: human choline transporter blockers, potency – cell-based, 5-point CRC, membrane potential dye, dose response (AID 504840); format: functional
# Protein Wnt-3a = Protein Wnt-3a (Mus musculus, UniProt P27467); assay: antagonism of Wnt3a pathway luciferase reporter – Wnt-LIGHT cells, luminescence, selectivity assay for Gli-SUFU antagonist project, dose response (AID 651570); format: functional; details: read-out: IC50_Mean;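 note: Wnt-LIGHT reporter cells stimulated with conditioned medium from Wnt3a-producing cells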
# [4] = biological target: T2, Rac GTPase-activating protein 1 (Homo sapiens, UniProt Q9H0H5); assay: blockers of MgcRacGAP-driven Rac1 GTP hydrolysis – biochemical, ADP Hunter fluorescence, primary and confirmatory, confirmation (AID 624330); format: functional
# T2 sequence (Q9H0H5 whole entry): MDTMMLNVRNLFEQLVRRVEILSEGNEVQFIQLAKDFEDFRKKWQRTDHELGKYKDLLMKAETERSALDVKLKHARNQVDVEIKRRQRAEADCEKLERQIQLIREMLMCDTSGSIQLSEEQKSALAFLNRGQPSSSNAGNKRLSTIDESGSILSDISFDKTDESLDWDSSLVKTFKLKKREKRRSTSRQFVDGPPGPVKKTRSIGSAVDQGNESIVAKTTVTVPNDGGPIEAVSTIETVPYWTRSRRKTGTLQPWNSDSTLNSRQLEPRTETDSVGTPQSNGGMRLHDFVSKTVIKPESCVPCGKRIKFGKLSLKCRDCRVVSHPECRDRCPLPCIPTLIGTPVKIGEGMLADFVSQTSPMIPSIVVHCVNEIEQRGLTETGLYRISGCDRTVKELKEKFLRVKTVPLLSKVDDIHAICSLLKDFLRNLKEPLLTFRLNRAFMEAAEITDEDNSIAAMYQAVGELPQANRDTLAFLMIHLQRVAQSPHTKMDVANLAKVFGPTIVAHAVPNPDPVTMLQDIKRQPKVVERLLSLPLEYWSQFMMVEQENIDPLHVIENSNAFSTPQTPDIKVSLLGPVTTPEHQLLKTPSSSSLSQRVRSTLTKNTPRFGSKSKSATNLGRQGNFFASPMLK
# Mu-type opioid receptor = Mu-type opioid receptor (Homo sapiens, UniProt P35372); format: functional, cell-based;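 note: U2OS cells with beta-arrestin recruitment to OPRM1 by beta-gal complementation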
# [5] = biological target: 5-hydroxytryptamine receptor 2A (Mus musculus, UniProt P35363); format: functional, cell-based;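 note: CHO-K1 cells with tagged receptor and beta-arrestin; agonist potency measured as compound-induced activation of the receptor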
# [6] = biological target: T3, Sentrin-specific protease 1 (Homo sapiens, UniProt Q9P0U3); assay: SENP1 catalytic domain blockers, concentration series – biochemical, kinetic FRET, dose response (AID 651697); format: functional; details: read-out: IC50_Mean
# T3 sequence (Q9P0U3 whole entry): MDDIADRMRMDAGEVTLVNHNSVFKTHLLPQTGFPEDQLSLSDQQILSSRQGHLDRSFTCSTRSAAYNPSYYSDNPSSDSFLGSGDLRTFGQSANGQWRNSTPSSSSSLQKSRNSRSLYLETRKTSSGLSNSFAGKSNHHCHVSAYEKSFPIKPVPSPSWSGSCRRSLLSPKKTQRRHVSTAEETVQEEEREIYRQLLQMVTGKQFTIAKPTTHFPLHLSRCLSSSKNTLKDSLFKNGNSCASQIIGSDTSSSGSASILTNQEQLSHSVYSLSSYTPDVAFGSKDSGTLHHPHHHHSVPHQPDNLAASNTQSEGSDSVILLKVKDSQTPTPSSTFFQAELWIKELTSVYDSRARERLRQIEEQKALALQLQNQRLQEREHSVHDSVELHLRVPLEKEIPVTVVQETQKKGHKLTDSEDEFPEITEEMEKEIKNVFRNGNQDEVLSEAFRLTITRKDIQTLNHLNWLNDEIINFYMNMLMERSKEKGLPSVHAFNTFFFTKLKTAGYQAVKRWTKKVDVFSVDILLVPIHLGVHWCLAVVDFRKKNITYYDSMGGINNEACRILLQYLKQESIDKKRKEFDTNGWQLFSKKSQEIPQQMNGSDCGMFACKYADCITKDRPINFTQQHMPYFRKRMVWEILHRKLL
# [7] = biological target: T3, Sentrin-specific protease 1; assay: Dose response confirmation of small molecule inhibitors of the catalytic domain of the SUMO protease, SENP1 in a FRET assay.; format: functional; details: read-out: IC50_Mean
# [8] = biological target: SWI/SNF-related matrix-associated actin-dependent regulator of chromatin subfamily A member 2 (Homo sapiens, UniProt P51531); assay: Luminescence-based cell-based high throughput dose response assay to identify activators of the function of SWI/SNF related, matrix associated, actin dependent regulator of chromatin, subfamily a, member 2 (SMARCA2, BRM).; format: functional
# [9] = Counterscreen for activators of the function of SWI/SNF related, matrix associated, actin dependent regulator of chromatin, subfamily a, member 2 (SMARCA2, BRM): Luminescence-based cell-based high throughput dose response assay to identify non-selective compounds using the VP16 reporter assay.; format: functional
# [10] = biological target: T4, Sentrin-specific protease 8 (Homo sapiens, UniProt Q96LD8); format: functional;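 note: kinetic enzyme assay of SENP8 cleaving a Nedd8 protein substrate, dose-response confirmation of screening hits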
# T4 sequence (Q96LD8 whole entry): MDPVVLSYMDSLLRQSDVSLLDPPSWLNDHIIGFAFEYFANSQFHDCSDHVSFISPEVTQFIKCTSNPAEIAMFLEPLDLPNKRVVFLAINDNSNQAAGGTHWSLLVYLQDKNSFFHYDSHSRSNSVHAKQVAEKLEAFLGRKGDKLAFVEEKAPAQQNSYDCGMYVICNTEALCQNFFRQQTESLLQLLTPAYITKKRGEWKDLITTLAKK
# [11] = biological target: T5, Mannose-6-phosphate isomerase (Homo sapiens, UniProt P34949); assay: MPI inhibition at elevated mannose 6-phosphate – biochemical, fluorescence intensity, high mannose 6-phosphate, primary screen (AID 1220)
# T5 sequence (P34949 whole entry): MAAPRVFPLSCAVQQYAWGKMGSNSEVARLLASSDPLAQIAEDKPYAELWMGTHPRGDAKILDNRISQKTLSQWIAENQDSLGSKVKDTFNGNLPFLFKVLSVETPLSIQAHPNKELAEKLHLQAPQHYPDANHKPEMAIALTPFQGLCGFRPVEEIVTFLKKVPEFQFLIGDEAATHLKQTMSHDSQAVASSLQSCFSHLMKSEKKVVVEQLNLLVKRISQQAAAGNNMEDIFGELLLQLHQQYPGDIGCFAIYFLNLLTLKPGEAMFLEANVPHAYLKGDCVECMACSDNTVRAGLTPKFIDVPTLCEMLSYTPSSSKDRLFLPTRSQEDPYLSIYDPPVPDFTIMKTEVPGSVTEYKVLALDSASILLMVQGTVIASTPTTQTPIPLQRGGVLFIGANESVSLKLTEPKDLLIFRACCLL
# [12] = biological target: Eukaryotic translation initiation factor 4E (Mus musculus, UniProt P63073); assay: blockers of eIF4G binding by eIF4E – biochemical, TR-FRET, dose response (AID 855); format: functional;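 note: potency for disrupting eIF4E binding to eIF4GI seen as loss of FRET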
# Vero [13] = assay: viability of Vero cells under compound – cytotoxicity control for flavivirus capping enzyme inhibitors (AID 588742); format: functional; details: Chlorocebus sabaeus
# [14] = biological target: Induced myeloid leukemia cell differentiation protein Mcl-1 (Homo sapiens, UniProt Q07820); format: functional
# [15] = biological target: T6, Histone-lysine N-methyltransferase NSD2 (Homo sapiens, UniProt O96028); format: biochemical
# T6 sequence (O96028 whole entry): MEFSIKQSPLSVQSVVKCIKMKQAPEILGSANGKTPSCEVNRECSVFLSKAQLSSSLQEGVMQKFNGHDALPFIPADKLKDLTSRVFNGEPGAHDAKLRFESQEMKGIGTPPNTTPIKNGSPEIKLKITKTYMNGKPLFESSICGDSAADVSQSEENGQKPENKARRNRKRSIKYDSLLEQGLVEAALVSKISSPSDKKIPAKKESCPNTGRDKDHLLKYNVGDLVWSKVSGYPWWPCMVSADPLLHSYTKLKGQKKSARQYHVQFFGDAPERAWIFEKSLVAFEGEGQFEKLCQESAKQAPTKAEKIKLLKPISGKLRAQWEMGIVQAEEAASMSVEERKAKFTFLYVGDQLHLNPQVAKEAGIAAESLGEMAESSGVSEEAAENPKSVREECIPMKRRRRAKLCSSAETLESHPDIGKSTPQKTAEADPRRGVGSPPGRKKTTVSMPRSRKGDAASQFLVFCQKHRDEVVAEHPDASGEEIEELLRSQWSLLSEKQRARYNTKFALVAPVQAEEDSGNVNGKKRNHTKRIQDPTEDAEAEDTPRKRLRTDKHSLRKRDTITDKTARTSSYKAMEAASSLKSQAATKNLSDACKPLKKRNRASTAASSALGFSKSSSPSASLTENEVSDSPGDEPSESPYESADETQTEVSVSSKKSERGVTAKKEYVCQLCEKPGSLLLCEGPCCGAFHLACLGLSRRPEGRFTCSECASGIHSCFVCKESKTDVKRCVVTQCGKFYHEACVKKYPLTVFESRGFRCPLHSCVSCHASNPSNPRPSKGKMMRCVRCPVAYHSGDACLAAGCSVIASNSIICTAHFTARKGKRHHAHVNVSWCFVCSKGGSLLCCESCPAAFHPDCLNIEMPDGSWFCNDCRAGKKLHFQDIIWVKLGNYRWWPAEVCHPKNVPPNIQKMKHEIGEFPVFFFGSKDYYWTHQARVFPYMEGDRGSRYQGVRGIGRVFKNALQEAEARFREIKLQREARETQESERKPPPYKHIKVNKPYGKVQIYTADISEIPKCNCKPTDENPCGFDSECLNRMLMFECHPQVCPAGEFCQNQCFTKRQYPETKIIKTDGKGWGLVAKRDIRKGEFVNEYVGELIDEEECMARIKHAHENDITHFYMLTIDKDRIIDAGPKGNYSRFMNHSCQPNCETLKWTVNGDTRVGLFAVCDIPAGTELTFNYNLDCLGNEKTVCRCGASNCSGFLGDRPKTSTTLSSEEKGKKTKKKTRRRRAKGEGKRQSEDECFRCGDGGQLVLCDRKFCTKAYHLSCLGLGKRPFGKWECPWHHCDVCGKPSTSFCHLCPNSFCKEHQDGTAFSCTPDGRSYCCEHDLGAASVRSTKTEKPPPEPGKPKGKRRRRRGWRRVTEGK
# Genome polyprotein = Genome polyprotein (dengue virus type 2, UniProt P29990); assay: flavivirus cap methylation enzyme inhibition – biochemical, confirmation dose response, primary screen (AID 588689); format: functional
# [16] = biological target: Mitochondrial peptide methionine sulfoxide reductase (Bos taurus, UniProt P54149); format: functional;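 note: absorbance read-out, biochemical high-throughput dose-response screen for MsrA inhibitors, confirmatory; recombinant bovine MsrA coupled to E. coli TrxB with NADPH and selenocystamine; potency is for inhibitors of MsrA activity on DMSO substrate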
# Vero [17] = assay: cells; format: functional; details: Chlorocebus sabaeus
# Mitochondrial peptide methionine sulfoxide reductase, sequence (P54149 whole entry): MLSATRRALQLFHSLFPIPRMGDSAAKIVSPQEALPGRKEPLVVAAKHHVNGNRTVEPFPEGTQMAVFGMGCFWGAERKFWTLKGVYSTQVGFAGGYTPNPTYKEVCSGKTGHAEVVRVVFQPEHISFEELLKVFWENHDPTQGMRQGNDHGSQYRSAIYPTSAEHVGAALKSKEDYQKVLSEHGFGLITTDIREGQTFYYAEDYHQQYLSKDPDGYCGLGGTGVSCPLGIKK
# SWI/SNF-related matrix-associated actin-dependent regulator of chromatin subfamily A member 2, sequence (P51531 whole entry): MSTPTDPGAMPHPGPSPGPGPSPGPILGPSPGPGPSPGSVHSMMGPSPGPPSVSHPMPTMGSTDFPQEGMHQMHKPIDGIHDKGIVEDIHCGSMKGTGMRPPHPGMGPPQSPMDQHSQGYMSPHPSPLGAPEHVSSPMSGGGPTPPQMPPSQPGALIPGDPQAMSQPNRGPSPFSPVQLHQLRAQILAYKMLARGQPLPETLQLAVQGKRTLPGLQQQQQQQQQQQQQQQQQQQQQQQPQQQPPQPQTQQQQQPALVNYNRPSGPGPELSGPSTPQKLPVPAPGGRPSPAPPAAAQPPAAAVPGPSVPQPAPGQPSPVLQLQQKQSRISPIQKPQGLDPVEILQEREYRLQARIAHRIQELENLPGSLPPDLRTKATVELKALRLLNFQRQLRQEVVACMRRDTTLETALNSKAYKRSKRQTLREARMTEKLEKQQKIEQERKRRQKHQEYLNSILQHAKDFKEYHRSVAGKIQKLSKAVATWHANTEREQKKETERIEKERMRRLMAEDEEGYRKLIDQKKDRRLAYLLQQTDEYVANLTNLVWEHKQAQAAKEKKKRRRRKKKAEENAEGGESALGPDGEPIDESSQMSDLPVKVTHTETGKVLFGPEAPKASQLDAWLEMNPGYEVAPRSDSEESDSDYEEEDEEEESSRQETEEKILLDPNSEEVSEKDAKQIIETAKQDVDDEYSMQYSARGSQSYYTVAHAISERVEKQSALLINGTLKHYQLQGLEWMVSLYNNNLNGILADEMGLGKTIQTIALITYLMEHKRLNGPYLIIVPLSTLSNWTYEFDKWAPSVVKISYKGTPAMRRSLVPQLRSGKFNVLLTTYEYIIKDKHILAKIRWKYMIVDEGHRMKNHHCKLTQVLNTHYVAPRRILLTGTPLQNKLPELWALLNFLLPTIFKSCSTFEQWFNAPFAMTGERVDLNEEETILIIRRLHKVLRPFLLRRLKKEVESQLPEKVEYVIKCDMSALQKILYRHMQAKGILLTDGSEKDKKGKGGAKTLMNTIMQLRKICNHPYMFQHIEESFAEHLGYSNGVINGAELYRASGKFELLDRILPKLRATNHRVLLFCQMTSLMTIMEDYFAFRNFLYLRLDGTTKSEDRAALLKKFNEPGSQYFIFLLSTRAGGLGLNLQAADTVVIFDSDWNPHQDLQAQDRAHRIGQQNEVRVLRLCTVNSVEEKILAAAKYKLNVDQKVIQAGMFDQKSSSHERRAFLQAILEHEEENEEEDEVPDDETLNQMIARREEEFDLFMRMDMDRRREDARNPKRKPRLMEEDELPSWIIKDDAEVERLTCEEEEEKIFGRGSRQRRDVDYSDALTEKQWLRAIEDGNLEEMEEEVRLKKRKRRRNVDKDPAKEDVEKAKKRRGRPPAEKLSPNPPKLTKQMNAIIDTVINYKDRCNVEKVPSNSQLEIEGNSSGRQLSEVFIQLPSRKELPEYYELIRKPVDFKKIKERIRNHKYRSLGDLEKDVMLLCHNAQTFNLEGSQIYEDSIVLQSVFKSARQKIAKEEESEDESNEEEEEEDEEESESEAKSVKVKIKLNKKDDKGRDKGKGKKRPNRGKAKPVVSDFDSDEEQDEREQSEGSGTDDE
# 5-hydroxytryptamine receptor 2A, sequence (P35363 whole entry, the tested form may be a part): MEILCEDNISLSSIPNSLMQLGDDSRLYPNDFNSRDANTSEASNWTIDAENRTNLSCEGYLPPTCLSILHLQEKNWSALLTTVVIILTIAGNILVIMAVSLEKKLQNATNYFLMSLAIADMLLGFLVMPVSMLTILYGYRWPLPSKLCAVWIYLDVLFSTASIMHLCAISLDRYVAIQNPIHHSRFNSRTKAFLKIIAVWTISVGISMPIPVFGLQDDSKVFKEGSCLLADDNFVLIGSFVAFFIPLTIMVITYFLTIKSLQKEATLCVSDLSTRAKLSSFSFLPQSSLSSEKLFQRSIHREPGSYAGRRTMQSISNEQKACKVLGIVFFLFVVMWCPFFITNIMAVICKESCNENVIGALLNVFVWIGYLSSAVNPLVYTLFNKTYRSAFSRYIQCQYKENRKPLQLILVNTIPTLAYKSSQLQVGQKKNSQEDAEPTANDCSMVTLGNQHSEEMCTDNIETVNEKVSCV
# Mu-type opioid receptor, sequence (P35372 whole entry): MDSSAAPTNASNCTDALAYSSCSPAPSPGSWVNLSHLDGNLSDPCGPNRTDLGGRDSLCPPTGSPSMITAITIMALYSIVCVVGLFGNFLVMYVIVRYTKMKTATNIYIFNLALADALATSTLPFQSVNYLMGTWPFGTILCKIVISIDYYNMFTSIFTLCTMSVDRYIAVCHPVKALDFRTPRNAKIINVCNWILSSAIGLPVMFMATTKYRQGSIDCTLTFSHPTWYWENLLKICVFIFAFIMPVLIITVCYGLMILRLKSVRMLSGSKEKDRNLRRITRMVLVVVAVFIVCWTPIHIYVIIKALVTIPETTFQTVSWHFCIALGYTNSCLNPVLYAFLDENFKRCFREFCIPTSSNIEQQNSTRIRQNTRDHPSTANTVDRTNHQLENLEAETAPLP
# Eukaryotic translation initiation factor 4E, sequence (P63073 whole entry): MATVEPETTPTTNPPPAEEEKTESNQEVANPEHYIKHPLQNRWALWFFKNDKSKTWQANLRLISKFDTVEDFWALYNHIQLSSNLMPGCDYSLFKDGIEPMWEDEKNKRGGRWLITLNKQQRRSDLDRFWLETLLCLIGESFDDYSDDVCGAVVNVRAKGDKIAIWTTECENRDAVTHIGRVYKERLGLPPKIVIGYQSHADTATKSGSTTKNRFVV
# Genome polyprotein, sequence (P29990 2492-3391 limits assumed): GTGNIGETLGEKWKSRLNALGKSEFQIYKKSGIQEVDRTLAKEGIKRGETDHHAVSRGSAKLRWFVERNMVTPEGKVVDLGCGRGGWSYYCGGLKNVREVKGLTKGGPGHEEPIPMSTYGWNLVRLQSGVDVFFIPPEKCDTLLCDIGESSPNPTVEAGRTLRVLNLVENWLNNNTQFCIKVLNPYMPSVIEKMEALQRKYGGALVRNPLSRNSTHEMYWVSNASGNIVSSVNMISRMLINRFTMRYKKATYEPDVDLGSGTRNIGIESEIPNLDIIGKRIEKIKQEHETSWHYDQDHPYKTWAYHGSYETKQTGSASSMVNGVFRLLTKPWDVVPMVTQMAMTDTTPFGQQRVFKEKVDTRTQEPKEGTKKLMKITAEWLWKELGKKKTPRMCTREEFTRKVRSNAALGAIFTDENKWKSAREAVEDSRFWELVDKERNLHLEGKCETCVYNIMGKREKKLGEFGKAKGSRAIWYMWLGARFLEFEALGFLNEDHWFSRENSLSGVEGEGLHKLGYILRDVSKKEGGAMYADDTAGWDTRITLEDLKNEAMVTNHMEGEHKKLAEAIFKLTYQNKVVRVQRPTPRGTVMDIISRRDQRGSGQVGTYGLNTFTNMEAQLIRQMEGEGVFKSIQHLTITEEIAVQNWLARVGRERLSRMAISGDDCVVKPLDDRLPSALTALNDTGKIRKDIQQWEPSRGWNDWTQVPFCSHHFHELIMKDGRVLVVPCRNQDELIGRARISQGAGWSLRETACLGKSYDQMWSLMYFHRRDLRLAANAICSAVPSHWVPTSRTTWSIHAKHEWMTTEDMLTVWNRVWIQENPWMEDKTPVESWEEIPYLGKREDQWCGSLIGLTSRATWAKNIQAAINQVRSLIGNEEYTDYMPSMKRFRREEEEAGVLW
# Benomyl/methotrexate resistance protein, sequence (P28873 whole entry): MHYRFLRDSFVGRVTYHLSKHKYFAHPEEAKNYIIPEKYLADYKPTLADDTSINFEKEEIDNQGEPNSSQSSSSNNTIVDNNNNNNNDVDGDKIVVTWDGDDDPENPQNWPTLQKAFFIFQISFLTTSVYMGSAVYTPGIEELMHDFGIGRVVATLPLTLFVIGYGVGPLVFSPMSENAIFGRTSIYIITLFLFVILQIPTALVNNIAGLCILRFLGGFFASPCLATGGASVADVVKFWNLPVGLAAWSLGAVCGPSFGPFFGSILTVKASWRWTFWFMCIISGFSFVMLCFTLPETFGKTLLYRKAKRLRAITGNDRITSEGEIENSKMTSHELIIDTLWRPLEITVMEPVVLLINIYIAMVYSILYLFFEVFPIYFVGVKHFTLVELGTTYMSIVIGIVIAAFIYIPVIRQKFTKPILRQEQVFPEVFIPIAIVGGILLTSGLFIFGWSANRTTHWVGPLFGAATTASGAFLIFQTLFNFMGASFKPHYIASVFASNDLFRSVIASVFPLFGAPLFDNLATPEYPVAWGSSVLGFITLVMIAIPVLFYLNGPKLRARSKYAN
# Protein Wnt-3a, sequence (P27467 whole entry): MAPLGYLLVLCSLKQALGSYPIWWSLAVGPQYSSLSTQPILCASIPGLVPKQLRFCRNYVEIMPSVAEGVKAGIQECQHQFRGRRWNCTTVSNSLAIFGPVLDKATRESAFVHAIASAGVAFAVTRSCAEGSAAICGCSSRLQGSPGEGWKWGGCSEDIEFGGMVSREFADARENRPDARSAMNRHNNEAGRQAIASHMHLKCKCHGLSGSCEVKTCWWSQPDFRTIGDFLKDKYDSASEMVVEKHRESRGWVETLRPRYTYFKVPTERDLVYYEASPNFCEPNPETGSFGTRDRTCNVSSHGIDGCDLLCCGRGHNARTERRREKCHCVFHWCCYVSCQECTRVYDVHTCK
smiles,measurement,setting,value
O=C(COC(=O)c1c2ccccc2cc2ccccc12)Nc1ncc(C(F)(F)F)cc1Cl,EC50,[1],23 µM (active)
NC(=O)CC(NC(=O)c1ccccc1)c1ccc(N2CCCCCC2)c([N+](=O)[O-])c1 (configuration not stated),IC50,[2],6.21 µM (active)
same,IC50,[3],7.51 µM (active)
same,IC50,Protein Wnt-3a,19.9 µM (active)
COc1ccc(S(=O)(=O)N2CCC(N3CCN(Cc4ccccc4)CC3)CC2)cc1,IC50,[4],98.7 µM (active)
same,EC50,Mu-type opioid receptor,92.4 µM (inactive)
same,EC50,[5],76.1 µM (inactive)
CC(=O)c1ccccc1Oc1nc(CN2CCOCC2)nc2scc(-c3cccs3)c12,IC50,[6],26.6 µM (inactive)
same,IC50,[7],69.6 µM (inactive)
O=C(/C=C/c1ccc(-c2ccccc2)o1)c1ccccc1,EC50,[8],> 91.2 µM (inactive)
same,EC50,[9],> 91.2 µM (inactive)
CNc1cc(Cl)nc(SC)n1,IC50,[2],2.67 µM (active)
same,IC50,[3],3.92 µM (active)
O=[N+]([O-])c1c[cH-]c(N2CCN(Cc3ccccc3)CC2)c2[c+]1[n-]o[n+]2=O,IC50,[10],17.3 µM (active)
COCC/N=c1\scc(-c2ccco2)n1/N=C/c1ccc(O)c(O)c1O,IC50,[11],32 µM (active)
same,IC50,[12],36 µM (inactive)
same,CC50,Vero [13],38.6 µM (active)
same,EC50,Mu-type opioid receptor,92.5 µM (inactive)
same,IC50,[14],1.6 µM (active)
same,EC50,[5],11.6 µM (inactive)
same,AC50,[15],1.16 µM (active)
same,IC50,Genome polyprotein,> 100 µM (active)
C/C(=N\Nc1ccc([N+](=O)[O-])cc1[N+](=O)[O-])C(C)C(C)C (configuration not stated),IC50,[16],155 µM (inactive)
CC(Nc1c([N+](=O)[O-])c(=O)oc2ccccc12)c1ccccc1 (configuration not stated),IC50,[16],125 µM (inactive)
O=C(/C=C/c1ccc(O)cc1)c1ccc(O)cc1O [ISOLIQUIRITIGENIN],CC50,Vero [17],> 25 µM (active)
same,EC50,[8],> 91.1 µM (inactive)
same,EC50,[9],> 91.1 µM (inactive)
